Where two headings read alike, the source gives them in different places.
Assays:
[1] = system: oxidized forms of rFSH; test: Oxidized forms of rFSH by RP-HPLC on crude harvest of CHO culture in serum-free medium with antioxidant; type: cell-based, human; conditions: for ranking of antioxidants for obtaining low levels of rFSH oxidized forms: Runs 1 and 2, Table II; for antioxidant quality from analyses of oxidized rFSH forms: antioxidant added to the culture medium, runs 3 to 5
Procedure: (§1) All experiments were performed with a CHO cell line expressing both subunits of human FSH. The produced protein is a dimeric gonadotropin further referred to as rFSH. The alpha subunit corresponds to SwissProt Accession No. P01215 and the beta subunit corresponds to SwissProt Accession No. P01225.
The medium used for cell cultivation was a basic serum-free medium (SFM) designed for cultivation of CHO cells. The SFM medium was supplemented with the antioxidant to be tested as detailed in Example 3.
(§2) At least 2.4.10^9 viable rFSH-producing cells were transferred to a 15 L bioreactor with an effective working volume of 11 L (newMBR, Zürich) comprising microcarriers. Immediately after seeding followed a batch phase that lasted for two or three days. The bioreactor was then continuously fed with SFM to a dilution rate of 1 day^−1 and to a perfusion rate at 11 L·day)^−1.
Growth phase and production phase were performed at the same pH and temperature (37° C., pH=7). The Dissolved Oxygen (DO) was maintained at 50% air saturation during the whole run.
Oxidized forms were determined by RP-HPLC on crude harvest as described by Bassett and Driebergen (Bassett and Driebergen, 2005).
SFM was supplemented with several antioxidant or combination of antioxidants in order to reach the final concentration shown in Table II. Each antioxidant or combination of antioxidants was tested for a period of about ten days. The first day of the test, the volume of antioxidant solution necessary to reach the set-point was added. Every day thereafter, a certain amount of antioxidant was washed out from the bioreactor by perfusion and replaced by one time addition (for a dilution rate of 1 d^−1, 63.2% of the bioreactor volume was renewed every 24 h and this represents the amount of antioxidant to be replaced every day). At the end of the test period, the antioxidant was washed out from the bioreactor by perfusion, and replaced by another antioxidant to be tested.
The percentage of oxidized forms of rFSH was measured at the end of each test (table II).
One run (run 3) was performed to test various concentrations of L-glutathione (from 1 to 20 mg/L), and one run (run 4) was performed to test various concentrations of L-methionine (from 0.25 to 3 g/L) and. […] Working Day zero (WDO) is defined as the day during which the bioreactor is seeded. Production Day zero (PDO) is defined as the day during which the cell culture process is switch from growth phase to production phase. In addition, a run was performed without varying the antioxidant concentration. In this run, the L-methionine was added at 250 mg/L from the beginning (run 5). For all runs, the percentage of oxidized forms of rFSH was measured regularly (table IV).

[2] = system: CHO cell line expressing both subunits of human FSH; test: Total viable cells ratio (TVC ratio) during antioxidant test period; type: cell-based, Chinese Hamster; conditions: end of test/start of test, >=1.0 = no toxic effect
Procedure: as §1, §2
The total viable cell concentration is defined as the sum of the concentration of cells attached on microcarriers and the concentration of viable cells in suspension.
The Total Viable Cells Ratio (TVC Ratio) for was calculated as follows: [total viable cell concentration, end of test]/[total viable cell concentration, start of test] wherein the start of test is defined as the day at which a new antioxidant is introduced in the culture, and the end of test is defined as the day before the next antioxidant is introduced in the culture.
(§3) The total viable cell concentration, the GCR and the rFSH titers were measured daily.

[3] = system: CHO cell line expressing both subunits of human FSH
Procedure: The rFSH titer was measured by an immunofluorimetric assay, using the Delphia hFSH kit from Wallac-ADL (Cat. No. A017-201).
The glucose consumption rate (GCR), expressed in gram per liter and per day, was calculated as follows: GCR=(G0−Gt)Dt+(Gt−1−Gt)
G stands for “Glucose concentration” and D stands for “dilution rate”. The indexes refer to the following:
as §3

OCCS [2-mercaptoethanol]
oxidized forms (normalized value) ([1]; Run 1, 10 mg/L, measured WD59, divided by 23.4% (L-cysteine 280 mg/L, run 2)): 0.53 | % of oxidized forms ([1]; Run 1, mean concentration 10 mg/L, tested WD50 to WD60, measured WD59): 12.3% | ranking of antioxidants for obtaining low levels of rFSH oxidized forms [1]: best antioxidants for obtaining low levels of rFSH oxidized forms | TVC Ratio ([2]; Run 1, 10 mg/L, WD50 to WD60): 0.8

O=C1O[C@H]([C@@H](O)CO)C(O)=C1O [L-ascorbic acid]
oxidized forms (normalized value) ([1]; Run 1, 10 mg/L, measured WD30, divided by 23.4% (L-cysteine 280 mg/L, run 2)): 0.74 | % of oxidized forms ([1]; Run 1, mean concentration 10 mg/L, tested WD20 to WD30, measured WD30): 17.3% | TVC Ratio ([2]; Run 1, 10 mg/L, WD20 to WD30): 1.3

CSCC[C@H](N)C(=O)O [L-methionine]
oxidized forms (normalized value) ([1]; Run 1, 186 mg/L, measured WD38, divided by 23.4% (L-cysteine 280 mg/L, run 2)): 0.61 | oxidized forms (normalized value) ([1]; Run 1, 734 mg/L, measured WD70, divided by 23.4% (L-cysteine 280 mg/L, run 2)): 0.60 | % of oxidized forms ([1]; Run 1, mean concentration 186 mg/L, tested WD30 to WD40, measured WD38): 14.3% | % of oxidized forms ([1]; Run 1, mean concentration 734 mg/L, tested WD60 to WD70, measured WD70): 14.0% | % oxidized forms ([1]; Run 4, mean concentration 250 mg/L, measured WD19): 15.37% | % oxidized forms ([1]; Run 4, mean concentration 500 mg/L, measured WD28): 14.26% | % oxidized forms ([1]; Run 4, mean concentration 1000 mg/L, measured WD40): 13.56% | % oxidized forms ([1]; Run 4, mean concentration 2000 mg/L, measured WD49): 9.77% | % oxidized forms ([1]; Run 4, mean concentration 3000 mg/L, measured WD59): 12.66% | % oxidized forms ([1]; Run 5, 250 mg/L from the beginning, measured WD16-17): 16.91% | % oxidized forms ([1]; Run 5, 250 mg/L from the beginning, measured WD20-21): 14.45% | % oxidized forms ([1]; Run 5, 250 mg/L from the beginning, measured WD22-23): 12.94% | % oxidized forms ([1]; Run 5, 250 mg/L from the beginning, measured WD24-25): 12.16% | % oxidized forms ([1]; Run 5, 250 mg/L from the beginning, measured WD26-27): 10.54% | % oxidized forms ([1]; Run 5, 250 mg/L from the beginning, measured WD28-29): 12.83% | % oxidized forms ([1]; Run 5, 250 mg/L from the beginning, measured WD30-31): 13.21% | decrease of average percentage of oxidized forms ([1]; Run 5, 250 mg/L, compared to run 1 and run 2 with L-cysteine as antioxidant): around 40% | ranking of antioxidants for obtaining low levels of rFSH oxidized forms [1]: best antioxidants for obtaining low levels of rFSH oxidized forms | antioxidant quality from analyses of oxidized rFSH forms [1]: good antioxidant | impact on viability of the cells, metabolism and productivity patterns ([3]; in the range of concentration tested (runs 3 to 5), data not shown): did not have any major impact | TVC Ratio ([2]; Run 1, 186 mg/L, WD30 to WD40): 1.4 | TVC Ratio ([2]; Run 1, 734 mg/L, WD60 to WD70): 1.0

CC(=O)N[C@@H](CS)C(=O)O [N-acetyl-L-cysteine]
oxidized forms (normalized value) ([1]; Run 2, 260 mg/L, measured WD38, divided by 23.4% (L-cysteine 280 mg/L, run 2)): 0.77 | % of oxidized forms ([1]; Run 2, mean concentration 260 mg/L, tested WD30 to WD40, measured WD38): 18.1% | TVC Ratio ([2]; Run 2, 260 mg/L, WD30 to WD40): 1.3

N[C@@H](CS)C(=O)O [L-cysteine, reference compound]
oxidized forms (normalized value) ([1]; Run 1, 280 mg/L, measured WD20, divided by 23.4% (L-cysteine 280 mg/L, run 2)): 0.92 | % of oxidized forms ([1]; Run 1, mean concentration 280 mg/L, tested WD10 to WD20, measured WD20): 21.5% | oxidized forms (normalized value) ([1]; Run 2, 280 mg/L, measured WD20, the reference itself (23.4%)): 1.00 | oxidized forms (normalized value) ([1]; Run 2, 350 mg/L, measured WD50, divided by 23.4% (L-cysteine 280 mg/L, run 2)): 0.88 | % of oxidized forms ([1]; Run 2, mean concentration 280 mg/L, tested WD0 to WD20, measured WD20): 23.4% | % of oxidized forms ([1]; Run 2, mean concentration 350 mg/L, tested WD40 to WD50, measured WD50): 20.5%

N[C@@H](CCC(=O)N[C@@H](CS)C(=O)NCC(=O)O)C(=O)O [L-glutathione]
oxidized forms (normalized value) ([1]; Run 1, 3 mg/L, measured WD50, divided by 23.4% (L-cysteine 280 mg/L, run 2)): 0.61 | % of oxidized forms ([1]; Run 1, mean concentration 3 mg/L, tested WD40 to WD50, measured WD50): 14.2% | decrease of percentage of oxidized forms ([1]; Run 3, 2.5 mg/L, compared to run 1 and run 2 with L-cysteine as antioxidant): around 35% | % oxidized forms ([1]; Run 3, mean concentration 1 mg/L, measured WD19): 18.31% | % oxidized forms ([1]; Run 3, mean concentration 2.5 mg/L, measured WD28): 14.26% | % oxidized forms ([1]; Run 3, mean concentration 5 mg/L, measured WD40): 23.99% | ranking of antioxidants for obtaining low levels of rFSH oxidized forms [1]: best antioxidants for obtaining low levels of rFSH oxidized forms | antioxidant quality from analyses of oxidized rFSH forms [1]: good antioxidant | impact on viability of the cells, metabolism and productivity patterns [3]: did not have any major impact | TVC Ratio ([2]; Run 1, 3 mg/L, WD40 to WD50): 1.2

From patent US8093052B2, “Serum-free culture medium for the production of recombinant gonadotropins” (Ares Trading S.A., priority 2005, dated 2012)
